pEC50: −log10 of the molar value. Calls of active or inactive are those of the source. No cut-off for these calls is given here.
Columns and labels:
Cannabinoid receptor 1 [1] = target: T1, Cannabinoid receptor 1 (Homo sapiens, UniProt P21554)
Cannabinoid receptor 1 [2] = target: T1, Cannabinoid receptor 1; experiment: Agonist activity at human Gi/Go-coupled CB1 receptor expressed in CHOK1 cells assessed as inhibition of forskolin-stimulated cAMP production measured after 30 mins by Hit-hunter assay
Cannabinoid receptor 1 [3] = target: T1, Cannabinoid receptor 1; experiment: Agonist activity at human Gi/Go-coupled CB1 receptor expressed in CHOK1 cells assessed as inhibition of forskolin-stimulated cAMP production measured after 30 mins by Hit-hunter assay relative to CP55940; assay type: cell-based; conditions: 0.5 h
[4] = Half life in human liver microsomes at 3 uM in presence of NADPH by LC-MS/MS analysis; assay type: ADME, Microsome
Cannabinoid receptor 1 [5] = target: T1, Cannabinoid receptor 1; experiment: Positive allosteric modulation of human CB1 receptor expressed in CHOK1 cells assessed as increase in CP55940-induced beta-arrestin recruitment preincubated for 30 mins followed by CP55940 addition and measured after 90 to 180 mins by PathHunter assay; assay type: cell-based
[6] = Half life in mouse liver microsomes at 3 uM in presence of NADPH by LC-MS/MS analysis; assay type: ADME, Microsome
Cannabinoid receptor 1 [7] = target: T1, Cannabinoid receptor 1; experiment: Agonist activity at human CB1 receptor expressed in CHOK1 cells assessed as induction of beta-arrestin recruitment measured after 30 mins by PathHunter assay; assay type: cell-based
[8] = Half life in rat liver microsomes at 3 uM in presence of NADPH by LC-MS/MS analysis; assay type: ADME, Microsome
Mus musculus [9] = experiment: Psychoactive effect in C57BL/6J mouse assessed as effect on locomotor activity by measuring change in distance travelled at 40 mg/kg, ip measured after 30 mins; assay type: ADME, organism-based; conditions: in vivo, 0.5 h
[10] = target: Cannabinoid receptor 1 (Mus musculus) (UniProt P47746); experiment: Positive allosteric modulation of CB1 receptor in mouse brain membranes assessed as increase in [3H]CP55940 binding at 1 uM measured after 60 mins relative to control; assay type: cell membranes
Mus musculus [11] = experiment: Psychoactive effect in C57BL/6J mouse assessed as hypothermia by measuring change in rectal temperature at 40 mg/kg, ip measured after 30 mins; assay type: ADME, organism-based; conditions: in vivo, 0.5 h
Mus musculus [12] = experiment: Psychoactive effect in C57BL/6J mouse assessed as antinociceptive effect at 40 mg/kg, ip measured after 30 mins by warm water tail withdrawal assay; assay type: ADME, organism-based; conditions: in vivo, 0.5 h
Mus musculus [13] = experiment: Psychoactive effect in C57BL/6J mouse assessed as effect on locomotor activity by measuring change in immobility time at 40 mg/kg, ip measured after 30 mins; assay type: ADME, organism-based; conditions: in vivo, 0.5 h
Mus musculus [14] = experiment: Psychoactive effect in C57BL/6J mouse assessed as change in immobility time at 40 mg/kg, ip measured after 30 mins by catalepsy bar test; assay type: ADME, organism-based; conditions: in vivo, 0.5 h
Cannabinoid receptor 1 [15] = target: T1, Cannabinoid receptor 1; experiment: Positive allosteric modulation of human CB1 receptor expressed in CHOK1 cells assessed as increase in CP55940-induced beta-arrestin recruitment at 500 nM preincubated for 30 mins followed by CP55940 addition and measured after 90 to 180 mins by PathHunter assay relative to CP55940; assay type: cell-based
Cannabinoid receptor 1 [16] = target: T1, Cannabinoid receptor 1; experiment: Positive allosteric modulation of human CB1 receptor expressed in CHOK1 cells assessed as increase in CP55940-induced beta-arrestin recruitment preincubated for 30 mins followed by CP55940 addition and measured after 90 to 180 mins by PathHunter assay relative to CP55940; assay type: cell-based
Cannabinoid receptor 1 [17] = target: T1, Cannabinoid receptor 1; experiment: Positive allosteric modulation of human Gi/Go-coupled CB1 receptor expressed in CHOK1 cells assessed as increase in CP55940-induced inhibition of forskolin-stimulated cAMP production preincubated for 30 mins followed by CP55940 addition and measured after 30 to 60 mins by Hit-hunter assay relative to CP55940; assay type: functional, cell-based
Mus musculus [18] = experiment: Antiallodynic activity in C57BL/6J mouse model of CCI-induced neuropathic pain assessed as reduction in mechanical sensitivity in ipsilateral paw at 40 mg/kg, ip by Von frey filament test; assay type: functional, organism-based; conditions: TDE = time-dependent effect
Mus musculus [19] = experiment: Antiallodynic activity in C57BL/6J mouse model of CCI-induced neuropathic pain assessed as reduction in mechanical sensitivity in contralateral paw at 40 mg/kg, ip by Von frey filament test; assay type: functional, organism-based; conditions: TDE = time-dependent effect
Mus musculus [20] = experiment: Enhancement of CP55940-induced antinociceptive activity in C57BL/6J mouse assessed as increase in tail withdrawal latency at 40 mg/kg, ip pretreated for 15 mins followed by CP55940 addition and measured after 30 mins by warm water tail withdrawal assay; assay type: functional, organism-based
Cannabinoid receptor 1 [21] = target: T1, Cannabinoid receptor 1; experiment: Positive allosteric modulation of human CB1 receptor expressed in CHOK1 cells assessed as increase in CP55940-induced beta-arrestin recruitment at 300 nM preincubated for 30 mins followed by CP55940 addition and measured after 90 to 180 mins by PathHunter assay relative to CP55940; assay type: cell-based
Cannabinoid receptor 1 [22] = target: T1, Cannabinoid receptor 1; experiment: Positive allosteric modulation of human CB1 receptor expressed in CHOK1 cells assessed as increase in CP55940-induced beta-arrestin recruitment at 1000 nM preincubated for 30 mins followed by CP55940 addition and measured after 90 to 180 mins by PathHunter assay relative to CP55940; assay type: cell-based

T1 sequence (P21554 whole entry): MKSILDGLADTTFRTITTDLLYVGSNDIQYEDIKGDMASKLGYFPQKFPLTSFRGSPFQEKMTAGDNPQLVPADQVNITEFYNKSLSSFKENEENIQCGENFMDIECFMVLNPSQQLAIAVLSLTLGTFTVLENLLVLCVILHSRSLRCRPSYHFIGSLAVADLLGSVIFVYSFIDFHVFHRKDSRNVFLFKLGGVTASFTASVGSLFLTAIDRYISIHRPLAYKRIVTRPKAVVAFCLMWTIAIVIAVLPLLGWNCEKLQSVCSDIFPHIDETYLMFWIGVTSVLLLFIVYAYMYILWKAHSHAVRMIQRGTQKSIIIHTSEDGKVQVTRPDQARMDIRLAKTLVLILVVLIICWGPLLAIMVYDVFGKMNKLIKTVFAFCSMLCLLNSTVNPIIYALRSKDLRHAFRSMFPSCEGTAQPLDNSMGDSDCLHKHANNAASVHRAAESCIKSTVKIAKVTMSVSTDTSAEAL
Sequence of Cannabinoid receptor 1 (Mus musculus) (P47746 whole entry): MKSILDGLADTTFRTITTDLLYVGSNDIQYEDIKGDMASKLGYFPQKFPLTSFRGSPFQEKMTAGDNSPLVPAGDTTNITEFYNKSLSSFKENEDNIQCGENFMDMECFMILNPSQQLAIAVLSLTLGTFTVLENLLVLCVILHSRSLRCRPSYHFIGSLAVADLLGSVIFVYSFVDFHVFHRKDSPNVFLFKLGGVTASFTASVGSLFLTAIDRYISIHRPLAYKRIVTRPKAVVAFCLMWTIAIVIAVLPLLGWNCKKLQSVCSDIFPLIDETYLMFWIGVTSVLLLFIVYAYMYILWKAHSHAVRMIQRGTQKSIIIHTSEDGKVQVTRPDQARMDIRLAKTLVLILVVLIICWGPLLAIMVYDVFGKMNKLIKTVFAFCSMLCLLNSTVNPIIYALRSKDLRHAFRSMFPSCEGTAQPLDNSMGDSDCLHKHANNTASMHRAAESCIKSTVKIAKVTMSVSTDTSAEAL

Activity (Cannabinoid receptor 1 [15]) [%]	Structure (SMILES)	pEC50 (Cannabinoid receptor 1 [1])	pEC50 (Cannabinoid receptor 1 [2])	Emax (Cannabinoid receptor 1 [3]; read-out: Emax) [%]	pEC50 (Cannabinoid receptor 1 [5])	pEC50 (Cannabinoid receptor 1 [7])	Activity [10] [%]	Emax (Cannabinoid receptor 1 [16]) [%]	Emax (Cannabinoid receptor 1 [17]) [%]	also measured
	N#Cc1ccc2c([C@@H](CC(F)(F)F)c3cccs3)c(-c3ccccc3)[nH]c2c1	7.77	7.54	84	6.44	6.08				t1/2 [4]: 72.3 min; t1/2 [6]: 26.5 min; t1/2 [8]: 34.9 min
	N#Cc1ccc2c(C(CC(F)(F)F)c3cccs3)c(-c3ccccc3)[nH]c2c1 (racemic)				6.75	6.19				Activity (Mus musculus [9]): Non-Toxic; Activity (Mus musculus [11]): Non-Toxic; Activity (Mus musculus [12]): Non-Toxic; Activity (Mus musculus [13]): Non-Toxic; Activity (Mus musculus [14]): Non-Toxic; Activity (Mus musculus [18]): Tde; Activity (Mus musculus [19]): Tde; Activity (Mus musculus [20]): Active
> 50	Cc1ccc2c(C(C(=O)C(F)(F)F)c3ccccc3)c(-c3ccccc3)[nH]c2c1 (racemic)									Activity (Cannabinoid receptor 1 [21]): 50 to 100%
> 50	Cc1ccc2c(C(CC(F)(F)F)c3ccccc3)c(-c3ccccc3)[nH]c2c1 (racemic)									Activity (Cannabinoid receptor 1 [21]): 50 to 100%
	N#Cc1ccc2c(C(C[N+](=O)[O-])c3cccs3)c(-c3ccccc3)[nH]c2c1 (single isomer, unassigned; (+)) [listing 1 of 2 here]	6.74	6.60	96	6.06	< 5.00				
	N#Cc1ccc2c(C(C[N+](=O)[O-])c3cccs3)c(-c3ccccc3)[nH]c2c1 (single isomer, unassigned; (+)) [listing 2 of 2 here]						99	51	102	Activity (Cannabinoid receptor 1 [22]): > 50%
	N#Cc1ccc2c(C(C[N+](=O)[O-])c3cccs3)c(-c3ccccc3)[nH]c2c1 (single isomer, unassigned; (-)) [listing 1 of 2 here]	7.44	7.34		6.18	< 5.00				Emax (Cannabinoid receptor 1 [3]): 97%
	N#Cc1ccc2c(C(C[N+](=O)[O-])c3cccs3)c(-c3ccccc3)[nH]c2c1 (single isomer, unassigned; (-)) [listing 2 of 2 here]						108	117	99	Activity (Cannabinoid receptor 1 [22]): > 50%

Structure (SMILES)	Activity (Cannabinoid receptor 1 [15]) [%]	pEC50 (Cannabinoid receptor 1 [1])	pEC50 (Cannabinoid receptor 1 [2])	Emax (Cannabinoid receptor 1 [3]; read-out: Emax) [%]	pEC50 (Cannabinoid receptor 1 [5])	pEC50 (Cannabinoid receptor 1 [7])	Activity [10] [%]	Emax (Cannabinoid receptor 1 [16]) [%]	Emax (Cannabinoid receptor 1 [17]) [%]	also measured
Cc1ccc2c(C(C[N+](=O)[O-])c3cccs3)c(-c3ccccc3)[nH]c2c1 (racemic)	> 50	7.74	7.49	94	6.55	6.11	127	106	98	Activity (Mus musculus [9]): Non-Toxic; Activity (Mus musculus [11]): Non-Toxic; Activity (Mus musculus [12]): Non-Toxic; Activity (Mus musculus [13]): Non-Toxic; t1/2 [4]: 41.2 min; Activity (Mus musculus [14]): Non-Toxic; t1/2 [6]: 10.4 min; t1/2 [8]: 6.4 min

Source: ChEMBL document CHEMBL4350967, “The Trifluoromethyl Group as a Bioisosteric Replacement of the Aliphatic Nitro Group in CB1 Receptor Positive Allosteric Modulators” (J Med Chem, 2019)
